Patent US20220175954A1, “HYPOXIA-INDUCING CRYOGELS” (priority 2019, published 2022)

Assays:
[1] = test system: 4T1 breast cancer cells; assay: Cancer cell viability under chemotherapeutic drugs in blank cryogels or HICs; type: cell-based; conditions: for IC50: Mus musculus
Procedure: IC50 was calculated using a linear regression in the linear part of each curve (Y=mX+n with Y=50 and X=IC50). Data are representative of n=6 samples per set of conditions.
(§1) Data are representative of n=6 samples per set of conditions.
(§2) The capacity of HICs to prevent cancer cell death when exposed to chemotherapeutic drugs was analyzed. 4T1 breast cancer cells or B16-F10 melanoma cells were cultured in normoxia within blank cryogels or HICs and treated with several concentrations of doxorubicin or cisplatin (0.1-100 μM) for 24 h, 48 h, or 72 h. Both 4T1 (FIGS. 24 and 25) and B16-F10 (FIGS. 26 and 27) cells within blank cryogels were sensitive to doxorubicin treatment. […] HICs induced up to 100-fold increase in cancer cell resistance to cisplatin after 72 h compared to blank cryogels.

[2] = test system: B16-F10 melanoma cells; assay: as above; type: cell-based; conditions: for IC50: Mus musculus
Procedure: as §1, §2

[3] = after 72 h, stated for 4T1 and B16-F10 together

SMILES | increase in cancer cell resistance in HICs compared to blank cryogels [1, 3] | increase in cancer cell resistance in HICs compared to blank cryogels [2, 3] | IC50 ([1]; 4T1, 24 h, 4T1 cells in HICs, 24 h) [µM] | IC50 ([1]; 4T1, 24 h, 4T1 cells within blank cryogels, 24 h) [µM] | IC50 ([1]; 4T1, 48 h, 4T1 cells in HICs, 48 h) [µM] | IC50 ([1]; 4T1, 48 h, 4T1 cells within blank cryogels, 48 h) [µM] | IC50 ([1]; 4T1, 72 h, 4T1 cells in HICs, 72 h) [µM] | IC50 ([1]; 4T1, 72 h, 4T1 cells within blank cryogels, 72 h) [µM] | IC50 ([2]; B16-F10, 24 h, B16-F10 cells in HICs, 24 h) [µM] | IC50 ([2]; B16-F10, 24 h, B16-F10 cells within blank cryogels, 24 h) [µM] | IC50 ([2]; B16-F10, 48 h, B16-F10 cells in HICs, 48 h) [µM] | IC50 ([2]; B16-F10, 48 h, B16-F10 cells within blank cryogels, 48 h) [µM] | IC50 ([2]; B16-F10, 72 h, B16-F10 cells in HICs, 72 h) [µM] | IC50 ([2]; B16-F10, 72 h, B16-F10 cells within blank cryogels, 72 h) [µM]
N.N.[Cl][Pt][Cl] [cisplatin] | up to 100 fold | up to 100 fold |  |  |  |  |  |  |  |  |  |  |  | 
COc1cccc2c1C(=O)c1c(O)c3c(c(O)c1C2=O)C[C@@](O)(C(=O)CO)C[C@@H]3O[C@H]1C[C@H](N)[C@H](O)[C@H](C)O1 [doxorubicin] |  |  | 56.8 | 1.08 | 50.7 | 0.55 | 47.2 | 0.33 | 55.7 | 0.91 | 46.2 | 0.37 | 47.2 | 0.38
